Test results from patent US6087401A, “Cyclopentenones, process for preparing the same, and the use thereof” (Takara Shuzo Co., Ltd., priority 1996, dated 2000).
Converted amounts (≈) assume the structure as drawn. Read-outs that look alike come from different tables or passages of the source.

How the values were obtained:
[1] = system: Salmonella typhimurium LT-2 (ATCC 27106); assay: growth turbidity, microorganism (14); type: cell-based; settings: 8 h, control 273
Text: (§1) They were testing microorganism (13): Escherichia coli HB101 (ATCC 33694); testing microorganism (14): Salmonella typhimurium LT-2 (ATCC 27106); testing microorganism (15): Pseudomonas aeruginosa (IFO 3080); testing microorganism (16): Staphylococcus aureus 3A (NCTC 8319); testing microorganism (17): Bacillus subtilis (IFO 3034); and testing microorganism (18): Streptococcus mutans (GS5; stored at National Institute of Health).
(§2) The testing microorganisms were subjected to a seed culture overnight in an L-broth (1% tryptone, 0.5% yeast extract and […]; pH 7.0). The seed culture (5 μl) was inoculated to a medium to which 25-200 μg/ml of cyclopentenone was added to 5 ml of L-both and also to a medium to which nothing was added and a shake incubation was conducted at 37° C. to measure the growth. At the initiation of the incubation and also at eight hours thereafter, turbidity of the culture was measured using a Fuji Digital Turbidimeter (sold from Fuji Kogyo KK; manufactured by Akiyama Denki Seisakusho) under the condition that the adjusted scale was 82.3 and the growth of the tested microorganism was measured from the value (growth turbidity) obtained by deducting the turbidity at the initiation of incubation from that after eight hours. Incidentally, in the case of the testing microorganism (18), a brain heart infusion was used instead of L-broth.

EAC = assay: life-prolonging effect, EAC; type: in vivo, female mice of DDY strain; settings: intraperitoneal tumor
[2] = system: Campylobacter jejuni A3309; assay: antibacterial action to Campylobacter; type: cell-based; settings: 37° C., 48 hours, read-out: concentration at which no growth of the microorganism was noted
Method: (2) Campylobacter jejuni A3309 (stored at the Institute of Hygienic Sciences) was inoculated to a brain heart infusion medium (manufactured by Difco) containing 2% of calf serum (manufactured by Dainippon Seiyaku) and subjected to a shake preincubation at 37° C. for 16 hours. The culture (50 μl) was spread on 20 ml of 0.5% NaCl-containing Muller-Hinton plate medium (manufactured by BBL) containing 800, 400, 200, 100, 50, 25, 12.5, 6.25, 3.13 or 1.56 μg/ml of cyclopentenone and subjected to a stationary incubation at 37° C. for 48 hours.

[3] = system: Lactobacillus fructivorans (JCM 1198); assay: antibacterial activity to hiochi bacteria, microorganism B; type: cell-based; settings: five days; for Growth Turbidity (OD600): control 2.03
Method: The testing microorganism was subjected to a stationary incubation for five days in an SI medium (Japan Brewery Association) containing 10% of ethanol to give a seed microorganism. The seed microorganism (0.1%) was added to 100 ml of 10% ethanol-containing SI medium to which the cyclopentenone was added in an amount of 0, 25, 50, 75 or 100 μg/ml (in terms of final concentration), then a stationary incubation was conducted for five days and the turbidity was measured. In measuring the turbidity, the value of OD600 was measured using an absorbance meter. A value of OD600 of the medium to which no testing microorganism was inoculated was deducted from the above value and this (growth turbidity) was used for the growth of the tested microorganism.
The tested microorganisms were as follows. Thus, Lactobacillus fructivorans (IFO 13118) (testing microorganism A), Lactobacillus fructivorans (JCM 1198) (testing microorganism B) and Lactobacillus homohiochii (IFO 13120) (testing microorganism C) as true hiochi bacteria while Lactobacillus rhamnosus (IFO 3532) (testing microorganism D) was used as hiochi lactobacteria.

[4] = system: Escherichia coli HB101 (ATCC 33694); assay: growth turbidity, microorganism (13); type: cell-based; settings: 8 h, control 222
Text: as §1, §2

[5] = system: Aspergillus fumigatus TIMM 1776; assay: antimicrobial activity to fungi; type: cell-based; settings: high concentrations
[6] = system: Candida albicans TIMM 0136; assay: antimicrobial activity to fungi; type: cell-based; settings: high concentrations
[7] = 25 days
Mouse leukemia P-388 = assay: life-prolonging effect, leukemia P-388; settings: 10 mg/kg/day i.p., five days
HL-60 cells = assay: apoptosis-inducing activity to HL-60 cells; type: cell-based, human; settings: Homo sapiens
Method: (2) The cyclopentenone prepared in Example 2-(1) was used for preparing aqueous solutions of the cyclopentenone in the concentrations of 2.86 mM, 955 μM, 318 μM, 106 μM, 35 μM, 12 μM and […]. Then said heat-treated substance was adjusted to pH 7.0 with NaOH and the apoptosis-inducing activity to HL-60 cells was measured as follows.
To 1.35 ml of this suspension was added 0.15 ml of the above-mentioned cyclopentenone solution and the mixture was incubated at […] for 20 hours in the presence of 5% of carbon dioxide gas.

Meth A cells = assay: anticancer action to solid cancer, Meth A; type: in vivo, female BALB/c mice; settings: 5 mg/kg/day s.c., five days
Method: The cyclopentenone mentioned in Example 3-(1) was diluted with a physiological saline solution to certain concentrations and the following tests were conducted.

[8] = system: Legionella pneumophila (isolated from bathtub water of hot spring); type: cell-based; settings: 12 ppm, common logarithm
[9] = system: Staphylococcus aureus 3A (NCTC 8319); assay: growth turbidity, microorganism (16); type: cell-based; settings: 8 h, control 243
Text: as §1, §2

[10] = system: Legionella pneumophila (isolated from a washing of human bronchus); type: cell-based; settings: 12 ppm, common logarithm
[11] = system: Bacillus subtilis (IFO 3034); assay: growth turbidity, microorganism (17); type: cell-based; settings: 8 h, control 267
Text: as §1, §2

mice = settings: oral, 100 mg/kg

## O=C1C=CC(O)C1O (stereo not drawn) [the cyclopentenone, 4,5-dihydroxy-2-cyclopenten-1-one]
[1]; 100 μg/ml
  Growth Turbidity: 0
[1]; 200 μg/ml
  Growth Turbidity: 0
EAC
  increase in life span: 255%
EAC; control 15.8 days
  mean survival days: 40.3 days
[2]
  MIC: ≥ 12.5 µg/mL
[3]; 25 μg/ml
  Growth Turbidity (OD600): 0.01
[3]; 50 μg/ml
  Growth Turbidity (OD600): 0
[3]; 75 μg/ml
  Growth Turbidity (OD600): 0
[3]; Fructilactobacillus fructivorans, JCM1198, 120 h, read-out: concentration completely inhibiting growth
  MIC: 50 µg/mL (≈ 438 µM)
[4]; 25 μg/ml
  Growth Turbidity: 0
[4]; 50 μg/ml
  Growth Turbidity: 0
[4]; 100 μg/ml
  Growth Turbidity: 0
[4]; 200 μg/ml
  Growth Turbidity: 0
[5]
  antimicrobial activity: antimicrobial activity at high concentrations
[6]
  antimicrobial activity: antimicrobial activity at high concentrations
[7]; 4° C. and -20° C.
  storage stability (amount of the cyclopentenone): almost stable
[7]; 37° C.
  storage stability (amount of the cyclopentenone): some decrease
Mouse leukemia P-388
  life-prolonging rate: 306.1%
Mouse leukemia P-388; control 10.3 days
  average surviving days: 31.4 days
HL-60 cells; HL-60, 20 h, read-out: final concentration at which viable cell numbers and cell viability decreased
  minimal effective concentration: ≥ 10.6 µM
HL-60 cells; HL-60, 20 hours, 35 μM solution added, read-out: final concentration at which apoptosis was induced (DNA molecular weight became small, cell shape changed)
  minimal effective concentration: 3.5 µM
Meth A cells
  Inhibiting Rate: 100.0%
Meth A cells; two weeks, n=8, control 1.41 ± 0.55
  Tumor Weight (average ± SD): 0.00 ± 0.00 g
[8]; 16 h, 0 ppm 7.4
  Numbers of Tested Microorganism Cells after Incubation: 6.1 log10 CFU/mL
[8]; 96 h, 0 ppm 8.6
  Numbers of Tested Microorganism Cells after Incubation: 8.6 log10 CFU/mL
[9]; 25 μg/ml
  Growth Turbidity: 203
[9]; 50 μg/ml
  Growth Turbidity: 158
[9]; 100 μg/ml
  Growth Turbidity: 0
[9]; 200 μg/ml
  Growth Turbidity: 0
[10]; 16 h, 0 ppm 6.9
  Numbers of Tested Microorganism Cells after Incubation: 5.7 log10 CFU/ml
[10]; 96 h, 0 ppm 8.7
  Numbers of Tested Microorganism Cells after Incubation: 8.3 log10 CFU/ml
[11]; 25 μg/ml
  Growth Turbidity: 145
[11]; 50 μg/ml
  Growth Turbidity: 9
[11]; 100 μg/ml
  Growth Turbidity: 0
[11]; 200 μg/ml
  Growth Turbidity: 0
mice
  toxicity: not show toxicity
